Experimental data published in patent publication US20230079819A1, “COMPOUNDS AND USES THEREOF” (Foghorn Therapeutics Inc., priority 2019, published 2023).
Read-outs that look alike come from different tables or passages of the source.

Experiments:
[1] = test system: uveal melanoma cell line 92-1; experiment: Inhibition of cell proliferation of uveal melanoma cell line 92-1; type: cell-based
[2] = test system: uveal melanoma cell line MP41; experiment: Inhibition of cell proliferation of uveal melanoma cell line MP41; type: cell-based
[3] = test system: parental and PKC-inhibitor refractory uveal melanoma cell lines; experiment: Inhibition of cell proliferation of parental and PKC-inhibitor refractory uveal melanoma cell lines; type: cell-based
[4] = test system: MP41 uveal melanoma cells, parental and PKCi-resistant; experiment: 7-day growth inhibition assay in parental and PKC inhibitor-resistant MP41 cells; type: cell-based; conditions: 7-day assay
[5] = test system: uveal melanoma cell lines (92-1, MP41, MP38, MP46); experiment: Growth of uveal melanoma cell lines with compound 67, 3 days, Cell-titer glo; type: cell-based; conditions: 0 to 10 micromolar
[6] = test system: uveal melanoma cell lines 92-1 or MP41; experiment: Growth inhibition of uveal melanoma cell lines, compound 67 compared with clinical PKC and MEK inhibitors, 3 days, Cell-titer glo; type: cell-based; conditions: vs LXS196 and Selumetinib
[7] = test system: several cancer cell lines; experiment: Inhibition of cell proliferation of several cancer cell lines; type: cell-based
[8] = test system: uveal melanoma cell lines 92-1 or MP41; experiment: Growth inhibition of uveal melanoma cell lines, Compound A compared with clinical PKC and MEK inhibitors, 3 days, Cell-titer glo; type: cell-based; conditions: vs LXS196 and Selumetinib
[9] = molecular target: T1, BRG-1 (Homo sapiens, UniProt P51532); experiment: ATPase catalytic activity of BRG-1, ADP-Glo in vitro biochemical assay; conditions: 30 nM BRG-1, 400 μM ATP
T1 construct: made in house; host or cells: High Five insect cells

[10] = molecular target: T2, BRM (Homo sapiens, UniProt P51531); experiment: ATPase catalytic activity of BRM, ADP-Glo in vitro biochemical assay; conditions: 30 nM BRM, 400 μM ATP
T2 construct: made in house; host or cells: High Five insect cells

[11] = 92-1 or MP41, 3 days, 0 to 10 micromolar
[12] = ATPase catalytic activity, read-out: BRG1 IP50 (μM)*
[13] = ATPase catalytic activity, read-out: BRM IP50 (μM)*
[14] = ATPase catalytic activity, read-out: BRG1 IP50
[15] = ATPase catalytic activity, read-out: BRM IP50

T2 sequence (P51531 whole entry): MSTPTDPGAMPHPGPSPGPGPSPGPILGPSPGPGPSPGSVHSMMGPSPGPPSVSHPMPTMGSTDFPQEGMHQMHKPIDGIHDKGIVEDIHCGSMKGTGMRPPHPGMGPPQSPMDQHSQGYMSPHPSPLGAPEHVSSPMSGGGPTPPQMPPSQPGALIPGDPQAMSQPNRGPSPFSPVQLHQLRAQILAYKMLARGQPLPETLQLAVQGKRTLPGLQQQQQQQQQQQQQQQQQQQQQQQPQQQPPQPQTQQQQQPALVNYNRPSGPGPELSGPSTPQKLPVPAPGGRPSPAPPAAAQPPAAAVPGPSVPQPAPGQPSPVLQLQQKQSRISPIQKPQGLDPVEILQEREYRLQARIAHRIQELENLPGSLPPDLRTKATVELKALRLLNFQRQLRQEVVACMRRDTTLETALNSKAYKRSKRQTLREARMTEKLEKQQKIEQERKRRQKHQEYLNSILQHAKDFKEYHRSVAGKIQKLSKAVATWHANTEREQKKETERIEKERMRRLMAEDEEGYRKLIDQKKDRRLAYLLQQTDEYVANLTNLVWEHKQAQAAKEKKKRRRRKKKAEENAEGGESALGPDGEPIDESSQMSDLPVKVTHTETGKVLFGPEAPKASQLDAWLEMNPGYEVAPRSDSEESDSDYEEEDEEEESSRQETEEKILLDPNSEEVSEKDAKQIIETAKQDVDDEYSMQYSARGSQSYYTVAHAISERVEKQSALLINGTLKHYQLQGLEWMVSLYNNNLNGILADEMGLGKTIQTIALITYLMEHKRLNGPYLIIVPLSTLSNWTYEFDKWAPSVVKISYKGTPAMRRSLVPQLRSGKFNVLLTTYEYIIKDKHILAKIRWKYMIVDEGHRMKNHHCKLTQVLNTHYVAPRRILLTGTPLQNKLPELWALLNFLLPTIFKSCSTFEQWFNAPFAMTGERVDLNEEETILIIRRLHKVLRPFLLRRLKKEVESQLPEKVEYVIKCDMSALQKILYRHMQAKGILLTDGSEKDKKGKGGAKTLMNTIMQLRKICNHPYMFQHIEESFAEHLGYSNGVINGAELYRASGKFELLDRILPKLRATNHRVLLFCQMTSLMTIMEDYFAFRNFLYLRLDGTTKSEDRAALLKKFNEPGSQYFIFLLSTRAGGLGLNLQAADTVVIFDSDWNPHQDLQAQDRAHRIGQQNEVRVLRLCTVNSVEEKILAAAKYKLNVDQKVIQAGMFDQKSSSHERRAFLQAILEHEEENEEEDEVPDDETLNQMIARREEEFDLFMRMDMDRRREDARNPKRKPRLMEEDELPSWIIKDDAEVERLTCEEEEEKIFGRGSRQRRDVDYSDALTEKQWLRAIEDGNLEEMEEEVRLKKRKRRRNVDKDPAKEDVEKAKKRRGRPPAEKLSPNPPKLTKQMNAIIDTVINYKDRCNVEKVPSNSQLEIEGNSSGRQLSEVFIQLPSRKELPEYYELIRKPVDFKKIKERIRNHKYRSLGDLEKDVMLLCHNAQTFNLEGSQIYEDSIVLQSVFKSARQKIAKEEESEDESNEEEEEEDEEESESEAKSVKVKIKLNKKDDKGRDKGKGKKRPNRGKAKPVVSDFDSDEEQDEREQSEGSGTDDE
T1 sequence (P51532 whole entry): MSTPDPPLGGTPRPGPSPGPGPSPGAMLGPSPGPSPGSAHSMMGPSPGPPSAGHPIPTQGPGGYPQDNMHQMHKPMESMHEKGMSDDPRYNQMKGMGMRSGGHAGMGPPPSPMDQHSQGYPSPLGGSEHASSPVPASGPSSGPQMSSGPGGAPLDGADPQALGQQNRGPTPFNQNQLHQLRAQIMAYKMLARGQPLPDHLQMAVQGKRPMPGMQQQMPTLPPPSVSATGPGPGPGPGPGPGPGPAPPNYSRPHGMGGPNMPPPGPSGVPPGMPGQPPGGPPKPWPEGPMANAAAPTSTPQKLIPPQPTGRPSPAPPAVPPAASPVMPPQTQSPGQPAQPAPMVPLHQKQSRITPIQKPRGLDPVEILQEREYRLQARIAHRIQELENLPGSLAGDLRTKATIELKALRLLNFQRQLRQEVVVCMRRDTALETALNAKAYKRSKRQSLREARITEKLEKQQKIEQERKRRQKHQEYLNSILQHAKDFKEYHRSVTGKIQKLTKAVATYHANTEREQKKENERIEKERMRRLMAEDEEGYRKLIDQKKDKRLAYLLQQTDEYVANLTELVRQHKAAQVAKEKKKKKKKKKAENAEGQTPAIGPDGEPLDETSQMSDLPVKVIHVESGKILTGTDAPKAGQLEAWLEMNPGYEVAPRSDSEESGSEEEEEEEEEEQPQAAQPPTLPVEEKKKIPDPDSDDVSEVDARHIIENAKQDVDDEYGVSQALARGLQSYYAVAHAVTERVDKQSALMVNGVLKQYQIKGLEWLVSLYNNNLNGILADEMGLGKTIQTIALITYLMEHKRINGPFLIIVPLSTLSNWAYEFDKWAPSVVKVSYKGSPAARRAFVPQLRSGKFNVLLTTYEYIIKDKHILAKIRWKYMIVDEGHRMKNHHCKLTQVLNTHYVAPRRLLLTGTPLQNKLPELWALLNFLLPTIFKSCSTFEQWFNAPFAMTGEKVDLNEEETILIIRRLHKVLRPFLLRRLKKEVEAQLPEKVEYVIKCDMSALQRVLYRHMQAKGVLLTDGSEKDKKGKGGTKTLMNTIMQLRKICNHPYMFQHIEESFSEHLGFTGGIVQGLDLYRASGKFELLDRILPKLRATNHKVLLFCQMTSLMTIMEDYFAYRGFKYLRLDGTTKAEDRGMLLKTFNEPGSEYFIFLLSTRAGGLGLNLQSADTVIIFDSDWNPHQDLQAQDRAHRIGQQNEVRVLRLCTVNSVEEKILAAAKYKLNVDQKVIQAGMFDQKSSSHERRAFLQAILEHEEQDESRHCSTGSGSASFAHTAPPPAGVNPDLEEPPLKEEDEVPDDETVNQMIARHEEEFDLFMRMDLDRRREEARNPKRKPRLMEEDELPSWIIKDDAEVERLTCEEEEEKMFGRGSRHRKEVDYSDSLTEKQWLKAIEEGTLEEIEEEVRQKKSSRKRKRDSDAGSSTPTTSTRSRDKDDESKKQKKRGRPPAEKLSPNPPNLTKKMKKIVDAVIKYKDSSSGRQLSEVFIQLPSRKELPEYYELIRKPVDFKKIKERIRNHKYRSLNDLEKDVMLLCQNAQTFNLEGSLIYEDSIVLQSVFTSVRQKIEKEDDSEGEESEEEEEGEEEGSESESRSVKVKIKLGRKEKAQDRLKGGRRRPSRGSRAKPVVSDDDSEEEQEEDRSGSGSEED

SMILES	IC50 [9, 12] [µM]	IC50 [10, 13] [µM]	IC50 [9, 14] [µM]	IC50 [10, 15] [µM]	other results
CC1(N)CCN(c2cccnc2NC(=O)c2nc(-c3ncccc3C(F)(F)F)cnc2N)CC1 [LXS196, reference compound]					inhibition of cell proliferation [1]: inhibition of cell proliferation; inhibition of cell proliferation [2]: inhibition of cell proliferation; inhibition of cell proliferation [3]: inhibition of cell proliferation; growth tolerance of PKCi-resistant cells relative to parental MP41 cell line (FIG. 7A) [4]: could tolerate growth at higher concentrations
CSCC[C@H](NC(=O)c1ccn(S(C)(=O)=O)c1)C(=O)Nc1nc(-c2cccc(-c3ccncc3)c2)cs1 [Compound 67, (S)-1-(methylsulfonyl)-N-(4-(methylthio)-1-oxo-1-((4-(3-(pyridin-4-yl)phenyl)thiazol-2-yl)amino)butan-2-yl)-1H-pyrrole-3-carboxamide]					growth inhibition in uveal melanoma cell lines (FIG. 5) [5]: potent growth inhibition; growth inhibition of uveal melanoma cells compared with clinical PKC and MEK inhibitors (FIG. 6A, 6B) [6, 11]: more potent effects on growth inhibition; onset of growth inhibition compared with clinical PKC and MEK inhibitors ([6]; 92-1 or MP41): faster onset of growth inhibition
CSCC[C@H](NC(=O)c1ccc(N)cc1)C(=O)Nc1nc(-c2cccc(-c3ccncc3)c2)cs1 [Compound A]					inhibition of cell proliferation [1]: inhibition of cell proliferation; inhibition of cell proliferation [7]: inhibition of cell proliferation; inhibition of cell proliferation [2]: inhibition of cell proliferation; growth inhibition of uveal melanoma cells compared with clinical PKC and MEK inhibitors (FIG. 2A, 2B) [8, 11]: comparable growth inhibition; onset of inhibition compared with clinical PKC and MEK inhibitors ([8]; 92-1 or MP41): faster onset of inhibition
CC(C)(C)[C@H](NC(=O)c1ccn(S(C)(=O)=O)c1)C(=O)Nc1nc(-c2cccc(-c3ccncc3)c2)cs1 [Compound 74, (S)—N-(3,3-dimethyl-1-oxo-1-((4-(3-(pyridin-4-yl)phenyl)thiazol-2-yl)amino)butan-2-yl)-1-(methylsulfonyl)-1H-pyrrole-3-carboxamide]	> 1	> 1			
C[C@@H]1CN(c2cccc(-c3csc(NC(=O)CNC(=O)c4ncc(C(C)(C)C)o4)n3)c2)C[C@H](C)O1 [Compound 823]					IC50 ([9]; read-out: BRG1 IP50): > 0.01 µM; IC50 ([10]; read-out: BRM IP50): < 0.01 µM
CS(=O)(=O)n1ccc(C(=O)NCC(=O)Nc2nc(C3CCCN(c4ccncc4)C3)cs2)c1 (stereo not shown) [Compound 111]	> 0.1	> 0.1			
C[C@@H]1CN(c2cccc(-c3csc(NC(=O)CNC(=O)c4ccn(C5(C)COC5)c4)n3)n2)C[C@H](C)O1 [Compound 316]	> 0.01	< 0.01			
CN1CCOc2ccc(-c3csc(NC(=O)CNC(=O)c4cn(C(C)(C)C#N)cn4)n3)cc21 [Compound 784]			> 0.01	> 0.01	
CC1(n2ccc(C(=O)NCC(=O)Nc3nc(-c4ccc5c(c4)OCC5)cs3)c2)COC1 [Compound 271]	> 0.1	> 0.01			
C[C@@H]1CN(c2cccc(-c3csc(NC(=O)CNC(=O)c4ccn([C@]5(C)CC5(F)F)c4)n3)n2)C[C@H](C)O1 [Compound 622]			> 0.01	< 0.01	
CC1(n2ccc(C(=O)NCC(=O)Nc3nc(-c4cc(F)cc(N5CCC5)c4)cs3)c2)COC1 [Compound 519]			> 0.01	> 0.01	
Cn1ccc(-c2cccc(-c3csc(NC(=O)CNC(=O)c4ccn(C(C)(C)C)c4)n3)c2)n1 [Compound 58, 1-(tert-butyl)-N-(2-((4-(3-(1-methyl-1H-pyrazol-3-yl)phenyl)thiazol-2-yl)amino)-2-oxoethyl)-1H-pyrrole-3-carboxamide]	> 0.01	> 0.01			
CC(C)(C)n1ccc(C(=O)NCC(=O)Nc2nc(-c3cccc(N4CC[C@H]5OCCC[C@@H]5C4)n3)cs2)c1 [Compound 659]			> 0.1	> 0.01	
CS(=O)(=O)n1ccc(C(=O)NCC(=O)Nc2nc(-c3cccc(N4CC5(CCCCO5)C4)c3)cs2)c1 [Compound 170]	> 0.01	> 0.01			
Cn1ccc2ccc(-c3csc(NC(=O)CNC(=O)c4ccn(C56CC(C5)C6)c4)n3)cc2c1=O [Compound 493]			> 0.1	> 0.1	
COC[C@H](NC(=O)c1ccn(S(C)(=O)=O)c1)C(=O)Nc1nc(-c2cccc(N3CC[C@H]4COC[C@@H]4C3)n2)cs1 [Compound 772]			< 0.01	< 0.01	
C[C@@H]1CN(c2cccc(-c3csc(NC(=O)CNC(=O)c4ncc(C5(C)COC5)o4)n3)n2)C[C@H](C)O1 [Compound 826]					IC50 ([9]; read-out: BRG1 IP50): > 0.01 µM; IC50 ([10]; read-out: BRM IP50): > 0.01 µM
CNc1cccc(-c2csc(NC(=O)CNC(=O)c3ccn(C(C)(C)C)c3)n2)c1 [Compound 272]	> 0.1	> 0.01			
CN1CCc2cc(-c3csc(NC(=O)CNC(=O)c4ccn(S(C)(=O)=O)c4)n3)ccc2C1 [Compound 130, N-(2-((4-(2-methyl-1,2,3,4-tetrahydroisoquinolin-6-yl)thiazol-2-yl)amino)-2-oxoethyl)-1-(methylsulfonyl)-1H-pyrrole-3-carboxamide]	> 0.1	> 0.1			
CO[C@@H]1CCN(c2cccc(-c3csc(NC(=O)CNC(=O)c4ccn(S(C)(=O)=O)c4)n3)c2)C1 [Compound 226]	> 0.01	< 0.01			
CC(C)(C)n1ccc(C(=O)NCC(=O)Nc2nc(-c3cccc(N4CCCC5(COC5)C4)n3)cs2)c1 [Compound 653]			> 0.01	> 0.01	
CS(=O)(=O)n1ccc(C(=O)NCC(=O)Nc2nc(-c3c[nH]c(-c4ccncc4)n3)cs2)c1 [Compound 146, 1-(methylsulfonyl)-N-(2-oxo-2-((4-(2-(pyridin-4-yl)-1H-imidazol-4-yl)thiazol-2-yl)amino)ethyl)-1H-pyrrole-3-carboxamide]	> 1	> 1			
CC(C)(C)n1ccc(C(=O)NCC(=O)Nc2nc(-c3cccc(-c4ccnc(CN)c4)c3)cs2)c1 [Compound 24, N-(2-((4-(3-(2-(aminomethyl)pyridin-4-yl)phenyl)thiazol-2-yl)amino)-2-oxoethyl)-1-(tert-butyl)-1H-pyrrole-3-carboxamide]	> 0.01	> 0.01			
